# According to US20080227813A1, “Pharmaceutical compositions and methods for treating diseases associated with neurodegeneration” (priority 2006, published 2008):
# Assays:
# [1] = system: CRL:NMRI BR mice; test: Acute intraperitoneal toxicity in mice; format: in vivo; conditions: mouse
# Description: Acute intraperitoneal toxicity studies were performed in rats (CRL(WI:)BR) and in mice (CRL: NMRI BR).
# In the case of the mouse study a control and five dose groups were involved at dose levels of 850 mg/kg, 1100 mg/kg, 1500 mg/kg, 1900 mg/kg and 2600 mg/kg (equal to 527 mg/kg, 682 mg/kg, 930 mg/kg, 1178 mg/kg and 1613 mg/kg free base, n=5 animals/sex/group).
# [2] = system: CRL:NMRI BR mice; test: Acute intravenous toxicity in mice; format: in vivo; conditions: mouse
# Description: A control and five dose groups were involved in the mouse study, at dose levels of 200 mg/kg, 250 mg/kg, 300 mg/kg, 360 mg/kg and 450 mg/kg (equal to […], 155 mg/kg, 186 mg/kg, 223 mg/kg and 279 mg/kg free base, n=5 animals/sex/group).
# [3] = system: Beagle dogs; test: 110-day repeated dose oral toxicity study in dogs; format: in vivo, dog
# Description: Evaluation […] involving control and three dose groups of 50, 80 and 160 mg/kg/day (equal to 31.0 mg/kg, 49.6 mg/kg and 99.2 mg/kg free base).
# [4] = dog, 50, 80, 160 mg/kg/day oral
structure (smiles),measurement,setting,value
"[O-][n+]1cccc(/C(Cl)=N/OC[C@H](O)CN2CCCCC2)c1 [Compound I, N-[2-hydroxy-3-(1-piperidinyl)-propoxy]-pyridine-1-oxide-3-carboximidoyl chloride]",Intraperitoneal LD50 value,"[1]; female, by base",738 - by base mg/kg
same,Intraperitoneal LD50 value,"[1]; female, by citrate",1189 - by citrate mg/kg
same,Intraperitoneal LD50 value,"[1]; male, by base",839 (674-1023) by base mg/kg
same,Intravenous LD50 value,"[2]; female, by base",158 - by base mg/kg
same,Intravenous LD50 value,"[2]; female, by citrate",254 - by citrate mg/kg
same,Intravenous LD50 value,"[2]; male, by base",190 (164-223) by base mg/kg
same,Intravenous LD50 value,"[2]; male, by citrate",307 (265-359) by citrate mg/kg
same,ECG and ophthalmological alterations,[3]; [4],No ECG and opthalmological alterations
same,mortality,[3]; [4],No animals died
same,NOEL,"[3]; dog, both sexes, oral once daily for 112 days",50 mg/kg/day
